System: yeast genes (level of expressed mRNA)
Test: DNA chip analysis of expressed mRNA of yeast genes after 2 h culture with a toxic chemical substance
Assay type: cell-based, Saccharomyces cerevisiae S288C
Experimental: Yeast (Saccharomyces cerevtisiae S288C (α SUC2mal mel gap2 CUP1)) were cultured at 25° C. on YPD medium (yeast extract 1%, polypepton 2%, glucose 2%). One of toxic chemical substances was added to the cell at logarithmic growth phase, and the cell was further cultured for two hours. Cell was cultured without any chemical substance in the same condition, and was used as control. Concentrations of the chemical substances were defined to inhibit the growth of the yeast but not lead to death.
After the completion of cultivation, the culture was centrifuged to collect the cells. To the cells, sodium acetate buffer (50 mM sodium acetate, 10 mM EDTA, 1% SDS) was added, and the mixture was shaken at 65° C. for five minutes, followed by returning to room temperature, and obtaining the supernatant, which procedure was repeated two times. To the supernatant, ½ amount of a solution of phenol/chloroform was added, and the mixture was centrifuged to give a supernatant, which was added with an equal amount of chloroform, and the mixture was centrifuged to give a supernatant. To the supernatant, an equal amount of isopropanol containing 0.3 M sodium acetate was added, and the mixture was allowed to stand at room temperature for 30 minutes, after which the mixture was centrifuged to give a sediment of the whole RNAs. Seventy % ethanol was added to the sediment, and the mixture was again centrifuged to give a sediment, which was then dried and dissolved in water. mRNA was isolated from the whole RNAs as followings. In view of the fact that a poly A chain is attached to the 3′ terminus of mRNA, a polynucleotide having a poly T structure which was immobilized on the surface of latex beads was used to trap the mRNA, and then the mRNA was washed and eluted with spine column (Oligotex-dT30<Super>mRNA Purification Kit, Takara). Reverse transcription of the mRNA was conducted with a reverse transcriptase (Super Script II Reverse Transcriptase; catalogue No. 18064-014, GibcoBRL) using fluorescence-labeled nucleotides to give cDNAs that were introduced with Cy3-dUTP or Cy5-dUTP during the reverse transcription.
The labeled cDNAs were dissolved in TE buffer (10 mM Tris-HCl/1 mM EDTA, pH8.0), and the solution was dropped on the DNA chip containing the whole genes of yeast (DNA Chip Research Inc. Japan) so that the cDNAs were hybridized on the DNA chip at 65° C. for over 12 hours. The fluoresces intensity of the DNA chip was read with a scanner, and the ratio relative to the fluorescence intensity resulting from the absence of chemical substance was estimated as the following, which is shown in Tables 1 to 9: [formula]
In the Tables, “Intensity” indicated in the rightmost column is a value of the level of expressed mRNA of each gene in control cells as divided by the average level of the expressions of the whole genes.

sodium dodecylbenzosulfonate [(17)]
level of expressed mRNA in the presence of chemical substance/in its absence (gene YGL104C): 1.3
level of expressed mRNA in the presence of chemical substance/in its absence (gene YGL126W): 0.9
level of expressed mRNA in the presence of chemical substance/in its absence (gene YGL134W): 0.9
level of expressed mRNA in the presence of chemical substance/in its absence (gene YGL154C): 1.0
The level of expressed mRNA in the presence of chemical substance/absence: YGL183C (gene YGL183C): 1.4
level of expressed mRNA in the presence of chemical substance/in its absence (gene YGL209W): 1.1
The level of expressed mRNA in the presence of chemical substance/absence: YGL223C (gene YGL223C): 0.8
level of expressed mRNA in the presence of chemical substance/in its absence (gene YGL253W): 0.7
The level of expressed mRNA in the presence of chemical substance/absence: YGR038W (gene YGR038W): 1.1
level of expressed mRNA in the presence of chemical substance/in its absence (gene YGR060W): 1.3
The level of expressed mRNA in the presence of chemical substance/absence: YGR139W (gene YGR139W): 1.0
The level of expressed mRNA in the presence of chemical substance/absence: YGR156W (gene YGR156W): 0.8
The level of expressed mRNA in the presence of chemical substance/absence: YGR198W (gene YGR198W): 1.1
The level of expressed mRNA in the presence of chemical substance/absence: YGR210C (gene YGR210C): 1.1
The level of expressed mRNA in the presence of chemical substance/absence: YGR211W (gene YGR211W): 0.5
The level of expressed mRNA in the presence of chemical substance/absence: YGR237C (gene YGR237C): 0.9
The level of expressed mRNA in the presence of chemical substance/absence: YGR243W (gene YGR243W): 2.1
The level of expressed mRNA in the presence of chemical substance/absence: YGR250C (gene YGR250C): 1.3
The level of expressed mRNA in the presence of chemical substance/absence: YGR266W (gene YGR266W): 0.7
The level of expressed mRNA in the presence of chemical substance/absence: YGR277C (gene YGR277C): 1.3
level of expressed mRNA in the presence of chemical substance/in its absence (gene YGR282C): 1.1
The level of expressed mRNA in the presence of chemical substance/absence: YGR293C (gene YGR293C): 0.8
The level of expressed mRNA in the presence of chemical substance/absence: YHL006C (gene YHL006C): 1.1
The level of expressed mRNA in the presence of chemical substance/absence: YHL021C (gene YHL021C): 1.3
The level of expressed mRNA in the presence of chemical substance/absence: YHL037C (gene YHL037C): 0.9
level of expressed mRNA in the presence of chemical substance/in its absence (gene YHR037W): 1.0
The level of expressed mRNA in the presence of chemical substance/absence: YHR083W (gene YHR083W): 0.8
level of expressed mRNA in the presence of chemical substance/in its absence (gene YHR092C): 0.9
The level of expressed mRNA in the presence of chemical substance/absence: YHR095W (gene YHR095W): 0.8
The level of expressed mRNA in the presence of chemical substance/absence: YHR105W (gene YHR105W): 1.0
The level of expressed mRNA in the presence of chemical substance/absence: YHR134W (gene YHR134W): 1.3
level of expressed mRNA in the presence of chemical substance/in its absence (gene YHR137W): 0.8
The level of expressed mRNA in the presence of chemical substance/absence: YHR180W (gene YHR180W): 0.8
The level of expressed mRNA in the presence of chemical substance/absence: YHR181W (gene YHR181W): 0.9
level of expressed mRNA in the presence of chemical substance/in its absence (gene YHR190W): 1.3
level of expressed mRNA in the presence of chemical substance/in its absence (gene YIL033C): 1.0
The level of expressed mRNA in the presence of chemical substance/absence: YIL108W (gene YIL108W): 1.2
The level of expressed mRNA in the presence of chemical substance/absence: YIL127C (gene YIL127C): 0.7
level of expressed mRNA in the presence of chemical substance/in its absence (gene YIL154C): 1.2
The level of expressed mRNA in the presence of chemical substance/absence: YIL165C (gene YIL165C): 1.4
level of expressed mRNA in the presence of chemical substance/in its absence (gene YIL167W): 0.7
level of expressed mRNA in the presence of chemical substance/in its absence (gene YIR035C): 1.1
The level of expressed mRNA in the presence of chemical substance/absence: YJL017W (gene YJL017W): 1.0
The level of expressed mRNA in the presence of chemical substance/absence: YJL032W (gene YJL032W): 1.1
The level of expressed mRNA in the presence of chemical substance/absence: YJL037W (gene YJL037W): 1.3
The level of expressed mRNA in the presence of chemical substance/absence: YJL049W (gene YJL049W): 0.9
level of expressed mRNA in the presence of chemical substance/in its absence (gene YJL088W): 1.4
The level of expressed mRNA in the presence of chemical substance/absence: YJL097W (gene YJL097W): 1.2
level of expressed mRNA in the presence of chemical substance/in its absence (gene YJL132W): 1.3
level of expressed mRNA in the presence of chemical substance/in its absence (gene YJL196C): 0.9
The level of expressed mRNA in the presence of chemical substance/absence: YJR030C (gene YJR030C): 0.7
The level of expressed mRNA in the presence of chemical substance/absence: YJR044C (gene YJR044C): 1.8
level of expressed mRNA in the presence of chemical substance/in its absence (gene YJR142W): 1.2
level of expressed mRNA in the presence of chemical substance/in its absence (gene YJR148W): 1.3
level of expressed mRNA in the presence of chemical substance/in its absence (gene YJR159W): 1.7
The level of expressed mRNA in the presence of chemical substance/absence: YKL051W (gene YKL051W): 1.5
The level of expressed mRNA in the presence of chemical substance/absence: YKL059C (gene YKL059C): 1.1
level of expressed mRNA in the presence of chemical substance/in its absence (gene YKL067W): 1.4
The level of expressed mRNA in the presence of chemical substance/absence: YKL090W (gene YKL090W): 0.7
The level of expressed mRNA in the presence of chemical substance/absence: YKL094W (gene YKL094W): 1.2
The level of expressed mRNA in the presence of chemical substance/absence: YKL097C (gene YKL097C): 1.1
The level of expressed mRNA in the presence of chemical substance/absence: YKL100C (gene YKL100C): 0.7
level of expressed mRNA in the presence of chemical substance/in its absence (gene YKR039W): 0.9
The level of expressed mRNA in the presence of chemical substance/absence: YKR040C (gene YKR040C): 0.7
The level of expressed mRNA in the presence of chemical substance/absence: YLR097C (gene YLR097C): 1.1
level of expressed mRNA in the presence of chemical substance/in its absence (gene YLR142W): 1.9
level of expressed mRNA in the presence of chemical substance/in its absence (gene YLR180W): 0.8
The level of expressed mRNA in the presence of chemical substance/absence: YLR226W (gene YLR226W): 1.1
level of expressed mRNA in the presence of chemical substance/in its absence (gene YLR273C): 1.0
level of expressed mRNA in the presence of chemical substance/in its absence (gene YLR300W): 0.7
level of expressed mRNA in the presence of chemical substance/in its absence (gene YLR307W): 1.1
The level of expressed mRNA in the presence of chemical substance/absence: YLR338W (gene YLR338W): 0.8
The level of expressed mRNA in the presence of chemical substance/absence: YLR339C (gene YLR339C): 0.7
The level of expressed mRNA in the presence of chemical substance/absence: YLR392C (gene YLR392C): 0.8
The level of expressed mRNA in the presence of chemical substance/absence: YLR415C (gene YLR415C): 0.8
The level of expressed mRNA in the presence of chemical substance/absence: YLR427W (gene YLR427W): 1.0
The level of expressed mRNA in the presence of chemical substance/absence: YML013W (gene YML013W): 1.1
The level of expressed mRNA in the presence of chemical substance/absence: YML029W (gene YML029W): 1.2
The level of expressed mRNA in the presence of chemical substance/absence: YML041C (gene YML041C): 1.3
The level of expressed mRNA in the presence of chemical substance/absence: YML079W (gene YML079W): 1.4
level of expressed mRNA in the presence of chemical substance/in its absence (gene YML110C): 1.1
The level of expressed mRNA in the presence of chemical substance/absence: YML118W (gene YML118W): 1.5
The level of expressed mRNA in the presence of chemical substance/absence: YMR068W (gene YMR068W): 1.3
The level of expressed mRNA in the presence of chemical substance/absence: YMR071C (gene YMR071C): 1.2
level of expressed mRNA in the presence of chemical substance/in its absence (gene YMR105C): 1.6
The level of expressed mRNA in the presence of chemical substance/absence: YMR114C (gene YMR114C): 1.0
The level of expressed mRNA in the presence of chemical substance/absence: YMR115W (gene YMR115W): 1.0
The level of expressed mRNA in the presence of chemical substance/absence: YMR160W (gene YMR160W): 0.9
level of expressed mRNA in the presence of chemical substance/in its absence (gene YMR189W): 1.0
The level of expressed mRNA in the presence of chemical substance/absence: YMR258C (gene YMR258C): 1.1
level of expressed mRNA in the presence of chemical substance/in its absence (gene YMR271C): 1.3
level of expressed mRNA in the presence of chemical substance/in its absence (gene YMR272C): 1.3
level of expressed mRNA in the presence of chemical substance/in its absence (gene YMR296C): 0.8
level of expressed mRNA in the presence of chemical substance/in its absence (gene YNL012W): 1.3
The level of expressed mRNA in the presence of chemical substance/absence: YNL026W (gene YNL026W): 1.0

— US20050112573A1, “Method of detecting toxic substance” (priority 2001, published 2005)
